# From ChEMBL document CHEMBL5338807, “Design and Synthesis of Bouchardatine Derivatives as a Novel AMP-Activated Protein Kinase Activator for the Treatment of Colorectal Cancer” (J Med Chem, 2023)
# Activity calls are given as the source filed them. The calls are words filed in the database; no cut-off is given here.
# Experiments:
# [1] = test system: RKO; assay: Antiproliferative activity against human RKO cells assessed as reduction in cell viability incubated for 24 hrs; format: functional, cell-based
# [2] = test system: RKO; assay: Effect on metabolism in human RKO cells assessed as enhancement of oxygen consumption rate at 0.1 uM measured after 24 hrs by seahorse analysis; format: functional, cell-based
# [3] = test system: DLD-1; assay: Antiproliferative activity against human DLD-1 cells assessed as reduction in cell viability incubated for 24 hrs; format: functional, cell-based; details: DLD-1, 24 h
# [4] = test system: HCT-116; assay: Antiproliferative activity against human HCT-116 cells assessed as reduction in cell viability incubated for 24 hrs; format: functional, cell-based; details: HCT-116, 24 h
# [5] = test system: SW480; assay: Antiproliferative activity against human SW480 cells assessed as reduction in cell viability incubated for 24 hrs; format: functional, cell-based; details: SW480, 24 h
# [6] = Cytotoxicity against human NCM460 cells assessed as reduction in cell viability incubated for 24 hrs; format: toxicity, cell-based
# [7] = Cytotoxicity against human LX2 cells assessed as reduction in cell viability incubated for 24 hrs; format: toxicity, cell-based; details: LX-2 cells
# [8] = Cytotoxicity against human L02 cells assessed as reduction in cell viability incubated for 24 hrs; format: toxicity, cell-based
# [9] = test system: RKO; assay: Antiproliferative activity against human RKO cells assessed as reduction in cell density at 0.1 uM measured after 16 hrs by RTCA assay; format: functional, cell-based
# [10] = test system: RKO; assay: Antiproliferative activity against human RKO cells assessed as cell killing at 0.5 uM measured after 16 hrs by RTCA assay; format: functional, cell-based
# [11] = test system: RKO; assay: Antiproliferative activity against human RKO cells assessed as inhibition of colony formation at 0.1 uM measured after 7 days by crystal violet staining based assay; format: functional, cell-based; details: time 7.0 day
# [12] = test system: RKO; assay: Inhibition of cell migration of human RKO cells at 0.1 uM incubated for 48 hrs by wound healing assay; format: functional, cell-based
# [13] = test system: RKO; assay: Effect on metabolism in human RKO cells assessed as oxygen consumption rate by measuring enhancement of basal respiration at 0.1 uM measured after 24 hrs by seahorse analysis; format: functional, cell-based
# [14] = test system: RKO; assay: Effect on metabolism in human RKO cells assessed as oxygen consumption rate by measuring enhancement of maximal respiration at 0.1 uM measured after 24 hrs by seahorse analysis; format: functional, cell-based
# [15] = test system: RKO; assay: Effect on metabolism in human RKO cells assessed as oxygen consumption rate by measuring enhancement of ATP production at 0.1 uM measured after 24 hrs by seahorse analysis; format: functional, cell-based
# [16] = test system: RKO; assay: Effect on metabolism in human RKO cells assessed as oxygen consumption rate by measuring enhancement of proton leak at 0.1 uM measured after 24 hrs by seahorse analysis; format: functional, cell-based
# [17] = test system: NCM460; assay: Effect on metabolism in human NCM460 cells assessed as change in extracellular acidification rate at 0.1 uM measured after 24 hrs by seahorse analysis; format: functional, cell-based
# [18] = test system: RKO; assay: Effect on energy metabolism in human RKO cells assessed as upregulation of ATP production incubated for 24 hrs by luminescence based analysis; format: functional, cell-based
# [19] = test system: RKO; assay: Effect on energy metabolism in human RKO cells assessed as increase in AMP level incubated for 24 hrs by luminescence based analysis; format: functional, cell-based
# [20] = test system: RKO; assay: Effect on energy metabolism in human RKO cells assessed as increase in mitochondrial membrane potential at 0.1 uM incubated for 24 hrs by rhodamine 123 staining based flow cytometric analysis; format: functional, cell-based
# [21] = test system: RKO; assay: Induction of mitochondrial damage in human RKO cells assessed as decrease in ROS level at 0.1 uM incubated for 24 hrs by DCFH-DA staining based flow cytometric analysis; format: functional, cell-based
# [22] = test system: RKO; assay: Upregulation of p-AMPK expression in human RKO cells at 0.1 uM incubated for 24 hrs by Western blotting analysis; format: functional, cell-based
# [23] = test system: RKO; assay: Upregulation of mitochondrial complex III in human RKO cells at 0.1 uM incubated for 24 hrs by Western blotting analysis; format: functional, cell-based
# [24] = test system: RKO; assay: Upregulation of mitochondrial complex V in human RKO cells at 0.1 uM incubated for 24 hrs by Western blotting analysis; format: functional, cell-based
# [25] = test system: RKO; assay: Antiproliferative activity against human RKO cells assessed as reduction in cell viability incubated for 24 hrs by propidium iodide staining based high-content screening method; format: functional
# [26] = test system: RKO; assay: Antiproliferative activity against human RKO cells assessed as reduction in cell viability incubated for 24 hrs in presence of oligomycin by propidium iodide staining based high-content screening method; format: functional
# [27] = test system: RKO; assay: Antiproliferative activity against human RKO cells assessed as reduction in cell viability incubated for 24 hrs in presence of FCCP by propidium iodide staining based high-content screening method; format: functional
# [28] = test system: RKO; assay: Antiproliferative activity against human RKO cells assessed as reduction in cell viability incubated for 24 hrs by propidium iodide staining based high-content screening method relative to control; format: functional
# [29] = test system: RKO; assay: Antiproliferative activity against human RKO cells assessed as reduction in cell viability incubated for 24 hrs in presence of oligomycin by propidium iodide staining based high-content screening method relative to control; format: functional
# [30] = test system: RKO; assay: Antiproliferative activity against human RKO cells assessed as reduction in cell viability incubated for 24 hrs in presence of FCCP by propidium iodide staining based high-content screening method relative to control; format: functional
# [31] = test system: RKO; assay: Antitumor activity against human RKO cells xenografted in BALB/nude mouse assessed as tumor growth inhibition at 10 mg/kg, ip administered once daily for 25 days; format: functional; details: 600 h, time 25 day
# [32] = Toxicity in BALB/nude mouse xenografted with human RKO cells assessed as body weight loss at 10 mg/kg, ip administered once daily for 25 days; format: organism-based; details: in vivo, 600 h, time 25 day
# [33] = test system: RKO; assay: Antitumor activity against human RKO cells xenografted in BALB/nude mouse assessed as activation of p-AMPKalpha at Thr172 residue in tumor tissue at 10 mg/kg, ip administered once daily for 25 days by immunohistochemical based microscopic analysis; format: functional, organism-based; details: time 25.0 day
# [34] = test system: RKO; assay: Antiproliferative activity against human RKO cells assessed as inhibition of colony formation at 1 uM measured after 7 days by crystal violet staining based assay; format: functional, cell-based; details: time 7.0 day
# [35] = test system: RKO; assay: Inhibition of cell migration of human RKO cells at 1 uM incubated for 48 hrs by wound healing assay; format: functional, cell-based
# [36] = test system: RKO; assay: Effect on metabolism in human RKO cells assessed as activation of oxidative phosphorylation at 1 uM measured after 24 hrs by seahorse analysis; format: functional, cell-based
# [37] = test system: RKO; assay: Effect on metabolism in human RKO cells assessed as enhancement of oxidative phosphorylation at 2 mM measured after 24 hrs by seahorse analysis; format: functional, cell-based
# [38] = test system: RKO; assay: Effect on energy metabolism in human RKO cells assessed as decrease in ATP production incubated for 24 hrs by luminescence based analysis; format: functional, cell-based
# [39] = test system: RKO; assay: Effect on energy metabolism in human RKO cells assessed as decrease in AMP level incubated for 24 hrs by luminescence based analysis; format: functional, cell-based
structure (smiles),measurement,setting,value
CN(C)CCCN(CCCN(C)C)c1nc(-c2[nH]c3ccccc3c2C=O)nc2ccccc12,IC50,[1],1.8 µM
COc1ccc2[nH]c(-c3nc(NCCCN(C)C)c4ccccc4n3)c(C=O)c2c1,IC50,[1],8.1 µM
CCCC(=O)Nc1nc(-c2[nH]c3ccccc3c2C=O)nc2ccccc12,IC50,[1],> 10 µM
CN(C)CCCNc1nc(-c2[nH]c3ccc(Cl)cc3c2C=O)nc2ccccc12,IC50,[1],4.1 µM
Cc1ccc(S(=O)(=O)Nc2nc(-c3[nH]c4ccccc4c3C=O)nc3ccccc23)cc1,IC50,[1],> 10 µM
O=Cc1c(-c2nc(NCCN3CCCC3)c3ccccc3n2)[nH]c2ccc(Cl)cc12,IC50,[1],2.5 µM
Cc1c(-c2nc(NCCN3CCCCC3)c3ccccc3n2)[nH]c2ccccc12,IC50,[1],> 10 µM
COCCNc1nc(-c2[nH]c3ccccc3c2C=O)nc2ccccc12,IC50,[1],4.1 µM
O=Cc1c(-c2nc(NCCN3CCCC3)c3ccccc3n2)[nH]c2ccc(F)cc12,IC50,[1],2.1 µM
O=Cc1c(-c2nc(NCCN3CCCC3)c3ccccc3n2)[nH]c2ccccc12,IC50,[1],1.1 µM
Cc1c(-c2nc(NCCCN3CCN(C)CC3)c3ccccc3n2)[nH]c2ccccc12,IC50,[1],> 10 µM
O=Cc1c(-c2nc(NCCc3ccc(O)cc3)c3ccccc3n2)[nH]c2ccccc12,Activity,[2],Active
same,IC50,[1],0.1 µM
same,IC50,[3],< 1 µM
same,IC50,[4],< 1 µM
same,IC50,[5],< 1 µM
same,IC50 at 24 h,[6],> 15 µM
same,IC50 at 24 h,[7],> 15 µM
same,IC50 at 24 h,[8],> 15 µM
same,Activity,[9],Active
same,Activity,[10],Active
same,inhibition,[11],Active
same,inhibition,[12],Active
same,Activity,[13],Active
same,Activity,[14],Active
same,Activity,[15],Active
same,Activity,[16],Active
same,Activity,[17],inactive
same,Activity,[18],Active
same,Activity,[19],Active
same,Activity,[20],Active
same,Activity,[21],Active
same,Activity,[22],Active
same,Activity,[23],Active
same,Activity,[24],Active
same,IC50,[25],0.07 µM
same,IC50,[26],> 1 µM
same,IC50,[27],> 1 µM
same,inhibition (INH),[28],92%
same,inhibition (INH),[29],52%
same,inhibition (INH),[30],25%
same,inhibition in vivo at 10 mg/kg,[31],58.2%
same,Activity,[32],Non-Toxic
same,Activity,[33],Active
O=Cc1c(-c2nc(NCCO)c3ccccc3n2)[nH]c2ccccc12,IC50,[1],> 10 µM
O=Cc1c(-c2nc(NCC(F)F)c3ccccc3n2)[nH]c2ccccc12,IC50,[1],7.9 µM
CC(=O)c1c(-c2nc(NCCN3CCCCC3)c3ccccc3n2)[nH]c2ccccc12,IC50,[1],9.5 µM
CN(C)CCCNc1nc(-c2[nH]c3ccccc3c2C=O)nc2ccccc12,IC50,[1],1.7 µM
same,inhibition,[34],Active
same,inhibition,[35],Active
same,Activity,[36],Active
CCC(=O)Nc1nc(-c2[nH]c3ccccc3c2C=O)nc2ccccc12,IC50,[1],> 10 µM
O=Cc1c(-c2nc(NCCCC(=O)N3CCCC3)c3ccccc3n2)[nH]c2ccccc12,IC50,[1],8.7 µM
Cc1ccc(CCNc2nc(-c3[nH]c4ccccc4c3C=O)nc3ccccc23)cc1,IC50,[1],1.8 µM
O=Cc1c(-c2nc3ccccc3c(=O)[nH]2)[nH]c2ccccc12,IC50,[1],> 10 µM
same,inhibition,[34],Active
same,inhibition,[35],Active
same,Activity,[36],Active
CN(C)c1nc(-c2[nH]c3ccccc3c2C=O)nc2ccccc12,IC50,[1],4.8 µM
CN(C)CCNc1nc(-c2[nH]c3ccc(F)cc3c2C=O)nc2ccccc12,IC50,[1],1.7 µM
NC(=O)c1ncn([C@@H]2O[C@H](CO)[C@@H](O)[C@H]2O)c1N,Activity,[37],Active
same,Activity,[38],Active
same,Activity,[39],Active
Cc1ccc2[nH]c(-c3nc(NCCCN(C)C)c4ccccc4n3)c(C=O)c2c1,IC50,[1],2 µM
C=Cc1c(C)nc(-c2[nH]c3ccccc3c2C(C)=O)nc1NCCCN1CCCC1,IC50,[1],> 10 µM
O=Cc1c(-c2nc(NCC3CCC3)c3ccccc3n2)[nH]c2ccccc12,IC50,[1],6.2 µM
